Experimental data: patent US9181577B2, “Treatment of chronic pelvic pain syndrome” (Northwestern University, priority 2010, dated 2015)

Tested on: pelvic pain behavior in EAP NOD mice
Experiment: Mast cell function inhibitors on established pelvic pain behavior in EAP model (von Frey tactile allodynia)
Assay type: in vivo
Conditions: 10 mg/kg each drug, intraperitoneal, at day 10 after PAg injection; tested one hour after drug administration
Experimental: Mice injected with rat prostate antigen (PAg) were tested at baseline and 10 days after injection for the development of pain behavior. Mice were treated at day 10 by intraperitoneal injection with saline (Control, A), 10 mg/kg each of cetrizine (H1, B), ranitidine (H2, C), Cromolyn sodium (MC stabilizer, D) or all three drugs (Combination, E) in a 200 μl volume. Following blinding of treatment and control groups, pelvic pain behavior was tested one hour after drug administration.
The experimental autoimmune prostatitis (EAP) model was selected for experiments conducted during development of embodiments of the present invention. Autoimmunity is one of the etiologies for patients with CPPS. Rat prostate antigen instillation in NOD mice provokes a chronic inflammation that is multifocal and evenly distributed in all the prostatic lobes. Pelvic pain was examined in NOD and C57BL/6 (B6) mice using quantitative behavior testing methods to assess tactile sensitivity of the suprapubic region. […] When expressed as increase in pain from baseline there was an approximately 350% increase in pain behavior compared to sham controls (SEE FIG. 1). This indicates the development of chronic pelvic pain in EAP mice and is the first report of chronic pain symptoms in an animal model of prostatitis.
Pelvic pain behavior in the EAP model was inhibited following the establishment of pain. EAP was induced in NOD mice and pelvic pain behavior at baseline and 10 days after disease onset was measured. Mice were administered a mast cell stabilizer, cromolyn sodium; a histamine receptor 1 antagonist, cetirizine; a histamine receptor 2 antagonist, ranitidine; and a combination of all three pharmacological agents or saline as control. Pelvic pain behavior was tested one hour after drug administration.

SMILES	reduction of pain behavior [%]
O=C(O)COCCN1CCN(C(c2ccccc2)c2ccc(Cl)cc2)CC1 (stereo not drawn) [cetirizine]	13.6
O=C(O)c1cc(=O)c2c(OCC(O)COc3cccc4oc(C(=O)O)cc(=O)c34)cccc2o1 [cromolyn sodium]	39.6
CNC(=C[N+](=O)[O-])NCCSCc1ccc(CN(C)C)o1 [ranitidine]	15.9
